This passage reports Activity and IC50 results from ChEMBL document CHEMBL3862022, “Synthesis and biological evaluation of lovastatin-derived aliphatic hydroxamates that induce reactive oxygen species” (Bioorg Med Chem Lett, 2016).

Data set [1] addresses T1, Serine/threonine-protein kinase Chk1 (Homo sapiens) (UniProt O14757).
T1 sequence (whole entry): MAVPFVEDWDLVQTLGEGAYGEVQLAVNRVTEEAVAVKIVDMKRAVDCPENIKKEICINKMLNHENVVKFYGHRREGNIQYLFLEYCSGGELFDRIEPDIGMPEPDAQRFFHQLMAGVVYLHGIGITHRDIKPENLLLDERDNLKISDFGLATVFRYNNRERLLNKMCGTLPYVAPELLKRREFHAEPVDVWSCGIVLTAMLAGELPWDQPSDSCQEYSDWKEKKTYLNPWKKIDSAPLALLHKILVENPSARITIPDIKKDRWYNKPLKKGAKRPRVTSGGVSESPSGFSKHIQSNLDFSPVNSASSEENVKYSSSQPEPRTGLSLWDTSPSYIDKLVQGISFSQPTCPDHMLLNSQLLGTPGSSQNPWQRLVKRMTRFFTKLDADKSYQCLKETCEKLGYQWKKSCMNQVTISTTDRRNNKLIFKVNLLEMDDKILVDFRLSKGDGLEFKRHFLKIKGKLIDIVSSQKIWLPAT
Nature of the data set: Induction of CHK1 phosphorylation in human MDA-MB-231 cells at 10 uM after 6 to 24 hrs by Western blot method. Type of data set: cell-based. (In general: Immunoblotting shows a protein as a band on a membrane.)

In data set [2] the target is Serine/threonine-protein kinase Chk2 (Homo sapiens) (UniProt O96017). The data set can be described thus: Induction of CHK2 phosphorylation in human MDA-MB-231 cells at 10 uM after 6 to 24 hrs by Western blot method. The data set is classed as cell-based.
Data set [3] deals with Serine-protein kinase ATM (Homo sapiens) (UniProt Q13315). The data set can be described thus: Induction of ATM phosphorylation in human MDA-MB-231 cells at 10 uM after 6 to 24 hrs by Western blot method. The data set is classed as cell-based.
The nature of data set [4]: Cytotoxicity against human MCF7 cells assessed as growth inhibition after 24 to 48 hrs by MTT assay. The data set is classed as functional, cell-based. (In general: Tetrazolium dyes change colour on reduction, which living cells bring about.)
Data set [5] has as its target T2, Serine/threonine-protein kinase Chk1/2 (Homo sapiens) (UniProt O96017+O14757). Nature of the data set: Induction of CHK1/2 phosphorylation in human MDA-MB-231 cells assessed as increase in p21 protein expression at 10 uM after 6 to 24 hrs by Western blot method. The data set is classed as cell-based.
Data set [6] is described as follows: Cytotoxicity against human PC3 cells assessed as growth inhibition after 48 hrs by SRB assay. Type of data set: functional, cell-based. The conditions noted are these: PC-3, 48 h. (In general: The SRB assay estimates cell density from bound dye.)
In data set [7] the test system is MDA-MB-231. The data set can be described thus: Induction of DNA damage in human MDA-MB-231 cells assessed as phosphorylation of gammaH2AX at IC50 to 3 times IC50 after 48 hrs by flow cytometric analysis. The data set is classed as functional, cell-based.
Data set [8] can be described thus: Cell cycle arrest in human MDA-MB-231 cells assessed as accumulation at S phase at 32 uM after 6 to 12 hrs by propidium iodide staining-based flow cytometric method. Type of data set: functional.
The nature of data set [9]: Cytotoxicity against human MDA-MB-231 cells assessed as growth inhibition after 24 to 48 hrs by MTT assay. Type of data set: functional, cell-based.
Data set [10] has as its system MDA-MB-231. Nature of the data set: Binding affinity to DNA minor groove in human MDA-MB-231 cells up to 100 uM after 20 mins by Hoechst 33342 staining-based fluorometric method. Type of data set: cell-based.
The nature of data set [11]: Cytotoxicity against human IMR90 cells assessed as growth inhibition up to 40 uM after 24 to 48 hrs by MTT assay. Type of data set: toxicity, cell-based. The conditions noted are these: imr-90.
Data set [12] in a line: Induction of reactive oxygen species in human MDA-MB-231 cells at 10 uM after 24 hrs by DCFH-DA probe-based flow cytometric method. Type of data set: physicochemical, cell-based. The following applies: mda-mb-231, 24 h.
Data set [13] is described as follows: Cytotoxicity against human T47D cells assessed as growth inhibition after 24 to 48 hrs by MTT assay. Type of data set: functional, cell-based.
In data set [14] the target is T2, Serine/threonine-protein kinase Chk1/2 (Homo sapiens). Nature of the data set: Induction of CHK1/2 phosphorylation in human MDA-MB-231 cells assessed as increase in p53 phosphorylation at 10 uM after 6 to 24 hrs by Western blot method. Type of data set: cell-based.
In data set [15] the test system is MDA-MB-231. The data set can be described thus: Induction of apoptosis in human MDA-MB-231 cells assessed as PARP cleavage by flow cytometric method. The data set is classed as functional, cell-based.
A short description of data set [16]: Induction of reactive oxygen species in human MDA-MB-231 cells at 30 uM after 24 hrs by DCFH-DA probe-based flow cytometric method. Type of data set: physicochemical, cell-based. The following applies: mda-mb-231, 24 h.

As a reminder, the IC50 is the concentration needed to halve the response being measured.

The source made the active and inactive calls. No cut-off for these calls is given here.

T2 sequence (O96017 whole entry, looked up, one chain of several): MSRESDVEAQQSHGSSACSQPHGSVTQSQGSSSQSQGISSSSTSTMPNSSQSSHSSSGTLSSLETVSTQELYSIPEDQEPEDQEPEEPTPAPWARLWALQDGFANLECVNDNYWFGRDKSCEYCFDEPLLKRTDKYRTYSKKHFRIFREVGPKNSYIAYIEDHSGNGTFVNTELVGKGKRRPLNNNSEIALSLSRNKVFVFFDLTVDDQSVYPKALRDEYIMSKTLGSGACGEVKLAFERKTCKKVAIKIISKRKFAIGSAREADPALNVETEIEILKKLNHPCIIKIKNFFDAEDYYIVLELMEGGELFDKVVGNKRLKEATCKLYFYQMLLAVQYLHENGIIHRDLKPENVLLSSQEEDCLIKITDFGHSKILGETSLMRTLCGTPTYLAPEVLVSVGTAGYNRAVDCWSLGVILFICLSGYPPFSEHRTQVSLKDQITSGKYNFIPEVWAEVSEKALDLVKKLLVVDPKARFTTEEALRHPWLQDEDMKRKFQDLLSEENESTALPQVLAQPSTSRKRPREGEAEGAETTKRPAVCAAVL
Sequence of Serine-protein kinase ATM (Homo sapiens) (Q13315 whole entry): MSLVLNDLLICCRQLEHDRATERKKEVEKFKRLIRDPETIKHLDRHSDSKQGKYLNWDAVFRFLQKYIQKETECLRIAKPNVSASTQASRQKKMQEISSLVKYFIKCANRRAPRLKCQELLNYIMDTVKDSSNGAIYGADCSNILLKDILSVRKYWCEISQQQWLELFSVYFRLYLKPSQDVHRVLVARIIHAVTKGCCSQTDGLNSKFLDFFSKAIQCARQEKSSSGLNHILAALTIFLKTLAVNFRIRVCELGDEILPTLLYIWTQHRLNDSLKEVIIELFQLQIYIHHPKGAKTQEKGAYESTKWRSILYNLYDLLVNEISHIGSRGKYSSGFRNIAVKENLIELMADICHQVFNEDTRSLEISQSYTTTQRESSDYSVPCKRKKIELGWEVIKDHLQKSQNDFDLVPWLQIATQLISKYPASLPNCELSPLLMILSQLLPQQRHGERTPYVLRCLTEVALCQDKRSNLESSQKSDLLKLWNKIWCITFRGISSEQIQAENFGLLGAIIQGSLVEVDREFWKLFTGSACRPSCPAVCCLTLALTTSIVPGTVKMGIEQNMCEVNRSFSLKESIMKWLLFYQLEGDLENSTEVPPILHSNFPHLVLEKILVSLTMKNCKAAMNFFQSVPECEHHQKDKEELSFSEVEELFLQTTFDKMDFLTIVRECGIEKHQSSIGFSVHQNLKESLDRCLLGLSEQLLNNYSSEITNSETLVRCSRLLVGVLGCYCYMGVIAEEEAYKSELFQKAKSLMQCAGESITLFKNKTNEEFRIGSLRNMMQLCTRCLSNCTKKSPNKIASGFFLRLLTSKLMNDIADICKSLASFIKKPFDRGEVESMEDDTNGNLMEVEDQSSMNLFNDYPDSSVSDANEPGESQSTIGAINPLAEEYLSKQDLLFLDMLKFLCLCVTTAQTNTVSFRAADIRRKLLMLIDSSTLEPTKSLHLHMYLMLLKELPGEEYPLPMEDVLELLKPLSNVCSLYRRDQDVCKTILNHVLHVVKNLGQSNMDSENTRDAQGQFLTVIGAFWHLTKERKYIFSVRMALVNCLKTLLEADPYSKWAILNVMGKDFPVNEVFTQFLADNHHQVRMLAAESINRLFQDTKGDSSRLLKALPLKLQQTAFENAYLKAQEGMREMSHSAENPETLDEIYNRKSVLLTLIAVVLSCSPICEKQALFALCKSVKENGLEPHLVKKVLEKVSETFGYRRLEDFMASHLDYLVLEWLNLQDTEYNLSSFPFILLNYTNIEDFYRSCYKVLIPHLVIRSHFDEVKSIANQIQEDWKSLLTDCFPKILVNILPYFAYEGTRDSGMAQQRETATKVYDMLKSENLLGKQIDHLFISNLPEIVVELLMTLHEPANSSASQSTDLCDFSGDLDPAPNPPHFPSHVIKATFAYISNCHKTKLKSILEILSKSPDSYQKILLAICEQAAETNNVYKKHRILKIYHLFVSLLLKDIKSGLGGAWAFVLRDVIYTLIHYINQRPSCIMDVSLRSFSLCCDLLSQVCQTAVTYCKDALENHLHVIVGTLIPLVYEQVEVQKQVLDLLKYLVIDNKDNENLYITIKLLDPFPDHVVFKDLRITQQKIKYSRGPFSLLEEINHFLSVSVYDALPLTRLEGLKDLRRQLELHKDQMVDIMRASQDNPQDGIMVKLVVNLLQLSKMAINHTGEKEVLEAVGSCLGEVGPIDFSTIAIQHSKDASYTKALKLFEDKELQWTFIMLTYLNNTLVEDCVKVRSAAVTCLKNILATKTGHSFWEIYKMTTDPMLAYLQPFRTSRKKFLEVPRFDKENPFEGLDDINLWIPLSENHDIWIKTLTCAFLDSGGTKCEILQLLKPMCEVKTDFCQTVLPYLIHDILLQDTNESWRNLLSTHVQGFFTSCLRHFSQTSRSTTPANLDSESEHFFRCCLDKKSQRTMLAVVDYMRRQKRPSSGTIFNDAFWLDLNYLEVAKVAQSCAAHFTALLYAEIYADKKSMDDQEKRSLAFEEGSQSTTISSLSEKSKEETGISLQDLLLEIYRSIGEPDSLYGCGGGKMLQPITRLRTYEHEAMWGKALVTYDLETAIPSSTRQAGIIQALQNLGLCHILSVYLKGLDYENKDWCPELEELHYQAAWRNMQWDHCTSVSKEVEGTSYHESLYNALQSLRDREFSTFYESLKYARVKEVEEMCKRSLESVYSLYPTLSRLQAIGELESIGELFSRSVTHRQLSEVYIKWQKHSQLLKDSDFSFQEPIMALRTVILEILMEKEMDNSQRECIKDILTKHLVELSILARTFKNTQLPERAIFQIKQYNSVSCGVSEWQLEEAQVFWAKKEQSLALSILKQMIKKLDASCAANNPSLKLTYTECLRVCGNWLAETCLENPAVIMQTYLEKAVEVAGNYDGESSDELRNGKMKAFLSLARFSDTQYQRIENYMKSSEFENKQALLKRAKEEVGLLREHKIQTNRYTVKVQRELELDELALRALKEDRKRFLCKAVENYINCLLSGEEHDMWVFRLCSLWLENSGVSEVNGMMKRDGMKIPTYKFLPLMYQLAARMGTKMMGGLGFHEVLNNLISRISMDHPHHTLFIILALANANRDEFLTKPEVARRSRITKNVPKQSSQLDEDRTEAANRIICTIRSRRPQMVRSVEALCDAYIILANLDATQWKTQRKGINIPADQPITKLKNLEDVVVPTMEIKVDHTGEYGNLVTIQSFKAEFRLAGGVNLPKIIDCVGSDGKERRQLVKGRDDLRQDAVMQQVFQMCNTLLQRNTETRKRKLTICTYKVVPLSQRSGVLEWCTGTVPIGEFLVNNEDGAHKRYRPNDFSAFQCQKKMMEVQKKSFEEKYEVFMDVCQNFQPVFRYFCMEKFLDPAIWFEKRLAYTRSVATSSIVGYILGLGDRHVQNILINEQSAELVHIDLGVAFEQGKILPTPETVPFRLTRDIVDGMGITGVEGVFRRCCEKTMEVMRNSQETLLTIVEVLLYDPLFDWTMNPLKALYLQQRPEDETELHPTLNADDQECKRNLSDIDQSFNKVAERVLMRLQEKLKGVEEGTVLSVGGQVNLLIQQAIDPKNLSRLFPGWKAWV
Sequence of Serine/threonine-protein kinase Chk2 (Homo sapiens) (O96017 whole entry): as the sequence (O96017 whole entry, looked up, one chain of several) above

`CC[C@H](C)C(=O)O[C@H]1C[C@@H](C)C=C2C=C[C@H](C)[C@H](CC[C@@H](O)C[C@@H](CC(=O)NO)OC(=O)c3ccccc3)[C@H]21`: the result in [1], in data set [2], in data set [3], in [5], in data set [7] and in data set [8] was Active. The result in [10] and in data set [14] was Active. Further, the half-maximal inhibitory concentration (IC50) in data set [4] is 30 to 40 µM; in data set [6], 3.3 µM; in data set [9] it was 30 to 40 µM; in data set [13], 30 to 40 µM. In addition, the Activity result was “Non-Toxic” in [11], “Active” in data set [12] and “Dose-dependent effect” in [15].
As to `CC[C@H](C)C(=O)O[C@H]1C[C@@H](C)C=C2C=C[C@H](C)[C@H](CC[C@@H](O)C[C@@H](CC(=O)NO)OC(=O)c3ccc4ccccc4c3)[C@H]21`, the IC50 in [6] came to 17.3 µM. Further, the outcome in data set [12] was Active.
For `CC[C@H](C)C(=O)O[C@H]1C[C@@H](C)C=C2C=C[C@H](C)[C@H](CC[C@@H](O)C[C@@H](CC(=O)NO)OC(=O)c3ccc([N+](=O)[O-])cc3)[C@H]21` the same measures were 8.2 µM and “Active”.
On the same counts, the results for `CC[C@H](C)C(=O)O[C@H]1C[C@@H](C)C=C2C=C[C@H](C)[C@H](CC[C@@H](O)C[C@@H](CC(=O)NO)OC(C)=O)[C@H]21` are 11.4 µM and “Active”.
For the molecule `C[C@H]1C=C2C=C[C@H](C)[C@H](CC[C@@H](O)C[C@H](O)CC(=O)NO)[C@H]2[C@@H](O)C1`, the half-maximal inhibitory concentration (IC50) in data set [6] is above 30 µM. The result in data set [12] was Active.
On the same counts, the results for `CC[C@H](C)C(=O)O[C@H]1C[C@@H](C)C=C2C=C[C@H](C)[C@H](CC[C@@H](O)C[C@@H](CC(=O)NO)OC(=O)Cc3ccccc3)[C@H]21` are 5.8 µM and “Active”.
On the same counts, the results for `CC[C@H](C)C(=O)O[C@H]1C[C@@H](C)C=C2C=C[C@H](C)[C@H](CC[C@@H](O)C[C@@H](CC(=O)NO)OC(=O)C(C)(C)C)[C@H]21` are 7.2 µM and “Active”.
For the molecule `CC[C@H](C)C(=O)O[C@H]1C[C@@H](C)C=C2C=C[C@H](C)[C@H](CC[C@@H]3C[C@@H](O)CC(=O)O3)[C@H]21` [LOVASTATIN], the result in [3] and in [14] was Active. Moreover, in data set [16], the outcome was Active. In addition, the IC50 was above 40 µM in data set [4], 5.4 µM in [6], above 40 µM in data set [9] and above 40 µM in [13].
For the molecule `CC[C@H](C)C(=O)O[C@H]1C[C@@H](C)C=C2C=C[C@H](C)[C@H](CC[C@@H](O)C[C@@H](CC(=O)NO)OC(=O)c3ccc(Cl)cc3)[C@H]21`, in [6], the half-inhibitory concentration (IC50) stood at 21.7 µM. In addition, the result in data set [12] was Active.
As for `CC[C@H](C)C(=O)O[C@H]1C[C@@H](C)C=C2C=C[C@H](C)[C@H](CC[C@@H](O)C[C@@H](CC(=O)NO)OC(=O)c3ccc(OC(F)(F)F)cc3)[C@H]21`, the concentration for half-maximal inhibition (IC50) in [6] stood at 20.3 µM. In [12], the outcome was Active.
Turning to `CC[C@H](C)C(=O)O[C@H]1C[C@@H](C)C=C2C=C[C@H](C)[C@H](CC[C@@H](O)C[C@@H](CC(=O)NO)OC(=O)CCc3ccccc3)[C@H]21`, in data set [6], the half-maximal inhibitory concentration (IC50) is 6.2 µM. For the same molecule, the result in data set [12] was Active.
